US20100210722A1, “COMPOSITION FOR PREVENTING OR TREATING LIPID METABOLIC DISORDERS COMPRISING FUCOXANTHIN OR MARINE PLANT EXTRACT CONTAINING SAME” (AMICOGEN, INC., priority 2007, published 2010)
Marks after values point to notes of the source that are not given here.

Experiments:
Type in all cases: in vivo, C57BL/6N/CriBgi mice
[1] = Triglyceride and cholesterol level in liver tissue; conditions: high fat diet, 6 weeks
Procedure: (§1) Seventy (70) 4-week-old male C57BL/6N/CriBgi mice weighing 14 g were purchased from Orient, and reared in separate cages maintained at 24° C. and relative humidity of 55%, providing light from 08:00 until 20:00. The mice were accustomed while providing a pellet type diet for a week. The mice, which weighed 18.5-18.7 g, were grouped into seven groups by the randomized block design. Each group was given a different diet, as follows.
(§2) Test diets were as follows: “normal diet group”=AIN-76 semisynthetic diet of Teklad (Madison, Wl, USA); “high fat diet group”=normal diet+10% of corn oil and 10% of lard; “test group I”=high fat diet+fucoxanthin extract of Example 1 (fucoxanthin content=0.05%); “test group II”=high fat diet+fucoxanthin extract of Example 1 (fucoxanthin content=0.2%); “test group III”=high fat diet+fucoxanthin extract of Example 2 (fucoxanthin content=0.05%); “test group IV”=high fat diet+fucoxanthin extract of Example 2 (fucoxanthin content=0.2%). The 6 diets (normal diet, high fat diet, and test I, II, III and IV) were given to the animals for 6 weeks. Diet intake was recorded every day, and body weight was measured once a week.

G6PD mRNA = assay: Expression of mRNA for G6PD in adipose tissue (real-time PCR); conditions: normal diet = 1.00, GAPDH internal marker
Text: as §2
5 mL of Trizol was added to 0.5 g of white adipose tissue. After pulverizing in liquid nitrogen using a mortar, the tissue was added to 1 mL of chloroform. […] The isolated RNA was diluted and absorbance was measured at 260 nm using a UV spectrometer. […]
Thus prepared cDNA was […] 10-fold, and primers for analyzing the expression of the respective genes (CPT, β-oxidation, FAS, ME and G6PD) were obtained from Genotech (Daejeon, Korea). […] Fluorescence signals were monitored for each cycle and threshold cycle (Cr) was analyzed for quantitative analysis of mRNA for the test groups (Applied Biosystems, SDS7000) (Livak, 2001). […]

[2] = test system: glucose-6-phosphate dehydrogenase (G6PD); assay: G6PD activity in liver tissue; conditions: high fat diet, 6 weeks
Text: as §2
(§3) The supernatant was centrifuged again at 12,000×g for 15 minutes. Then, the supernatant was subjected to high-speed centrifuging (Beckman, Optima TLX-120, USA) at 100,000×g for 1 hour. Then, change of the activity of enzymes involved in the synthesis of fatty acid—fatty acid synthase (FAS), glucose-6-phosphate dehydrogenase (G6PD) and malic enzyme (ME)—was measured.
(§4) The G6PD enzyme is an enzyme that supplied reducing energy required for the synthesis of fatty acid. […] G6PD activity was measured at 340 nm by the degree of reduction of NADP^+ to NADPH by G6PD. […] G6PD activity was calculated as nmol of NADPH produced per 1 mg of protein in cell per minute.

[3] = test system: phosphatidate phosphohydrolase (PAP); assay: PAP activity in liver tissue; conditions: high fat diet, 6 weeks
Text: as §2

[4] = test system: glucose-6-phosphate dehydrogenase (G6PD); assay: G6PD activity in adipose tissue; conditions: high fat diet, 6 weeks
Text: as §2, §3, §4

[5] = test system: peroxisome proliferator-activated receptor α (PPARα) mRNA; assay: Expression of mRNA for PPARα in liver tissue (real-time PCR)
[6] = Triglyceride and cholesterol level in plasma; conditions: high fat diet, 6 weeks, fasted 12 hours
Procedure: as §1, §2
The mice fed with the test diets for 6 weeks of Reference Example 1 were fasted for 12 hours. The mice were anesthetized first by ether inhalation, and then by intramuscular injection of ketamine-HCl (Yuhan). […] Plasma was separated by carrying out centrifuge at 3,000 rpm for 15 minutes. The separated plasma was stored at −70° C.

[7] = fucoxanthin content 0.05% (Test I/III)
[8] = fucoxanthin content 0.2% (Test II/IV)

For `CC(=O)O[C@H]1CC(C)(C)C(=C=C/C(C)=C/C=C/C(C)=C/C=C/C=C(C)/C=C/C=C(\C)C(=O)C[C@@]23O[C@]2(C)C[C@@H](O)CC3(C)C)[C@](C)(O)C1` [highly pure fucoxanthin, Fucoxanthin], the “Triglyceride level in liver tissue” value [1, 7] was 0.14 ± 0.01^c mmol/g liver, the “Triglyceride level in liver tissue” value [1, 8] was 0.17 ± 0.02^b mmol/g liver and the “Expression of mRNA, G6PD” value (G6PD mRNA; [7]) was 1.10 ± 0.15^abc. For the same compound, the “Expression of mRNA, G6PD” value (G6PD mRNA; [8]) was 0.67 ± 0.04^a, the G6PD activity [2, 7] was 51.53 ± 4.31^a mmol/min/mg protein and the G6PD activity [2, 8] was 50.51 ± 3.74^a mmol/min/mg protein. The PAP activity [3, 7] was 21.62 ± 1.54^a mmol/min/mg protein, the PAP activity [3, 8] was 26.14 ± 1.03^ab mmol/min/mg protein and the G6PD activity [4, 7] was 1.25 ± 0.27^a mmol/min/mg protein. The G6PD activity [4, 8] was 1.27 ± 0.15^a mmol/min/mg protein, the “Expression of mRNA, PPARα” value ([5]; normal diet = 1.00, fucoxanthin content 0.05% (Test I/III)) was 1.22 ± 0.08^ab and the “Expression of mRNA, PPARα” value ([5]; normal diet = 1.00, fucoxanthin content 0.2% (Test II/IV)) was 1.57 ± 0.36^b. For the same compound, the “Cholesterol level in plasma” value [6, 7] was 2.35 ± 0.22^a mmol/L, the “Triglyceride level in plasma” value [6, 7] was 1.15 ± 0.07^b mmol/L and the “Cholesterol level in plasma” value [6, 8] was 2.35 ± 0.11^b mmol/L. For the same compound, the “Triglyceride level in plasma” value [6, 8] was 1.24 ± 0.07^b mmol/L.
